The values that follow come from the NIST ThermoML archive (doi:10.1016/j.jct.2015.05.019).

The conditions of data set [1]: Crystal; DTA.
Data set [2] is described as follows: Molar enthalpy of transition or fusion. The conditions noted are these: Crystal; DSC.

± gives the expanded uncertainty stated by the source.

As for `O=c1c(-c2ccc(O)cc2)coc2cc(O[C@@H]3O[C@H](CO)[C@@H](O)[C@H](O)[C@H]3O)cc(O)c12` [genistin], in data set [1], the Normal melting temperature was found to be 274.32 ± 0.5 °C. For the same molecule, in data set [2], the “Molar enthalpy of transition or fusion” value amounted to 15.7 ± 3.11 kcal/mol.
